Measurements as given in patent US10252997B2, “Monocyclic compound” (Takeda Pharmaceutical Company Limited, priority 2015, dated 2019).

How the values were obtained:
[1] = test system: HCT116 cells; test: Growth inhibitory activity on HCT116 cell (CellTiter-Glo); format: cell-based; conditions: Homo sapiens, HCT-116, 72 h; test compound 1 μM, 3 days; read-out: HCT116 cell proliferation inhibitory rate (%) at 1 μM
Procedure: The growth inhibitory activity of the compound on HCT116 cell was evaluated by the following method.
HCT116 cells were seeded in a 384 well blackplate at 900 cells/[…]/well, and maintained in an assay medium (RPMI medium (Wako) containing 2% fetal bovine serum, 50 Unit/mL penicillin and […] streptomycin (Invitrogen)). The next day, a test compound dissolved in dimethyl sulfoxide (DMSO) was diluted with the assay medium, and the obtained compound solution was added by […] to each well of a plate containing HCT116 cells, and incubated at 37° C., 5% CO2 (test compound addition group).
A similar reaction was performed without adding a test compound (test compound non-addition group).
Furthermore, a similar reaction was performed under the conditions without adding HCT116 cell and a test compound (control group).
After 3 days, […] of a CellTiter-Glo reagent (Promega KK) was added to the well, and the mixture was stirred for 10 min. Thereafter, the luminescence value of each well was measured by the EnVision™ multilabel counter (Perkin Elmer Inc.).
The HCT116 cell proliferation inhibitory rate (%) of the test compound was determined by the following calculation formula. (1−(luminescence of test compound addition group−luminescence of control group)÷(luminescence of test compound non-addition group−luminescence of control group))×100
The HCT116 cell proliferation inhibitory rates (%) of the test compound (1 μM) are shown below.

[2] = molecular target: T1, Human ACC1 (Homo sapiens, UniProt Q13085); test: Measurement of ACC1 inhibitory activity (Malonyl-CoA produced, RapidFire-mass spectrometry); format: biochemical; conditions: 10 μM of the test compound; read-out: ACC1 inhibitory rate (%) at 10 μM
T1 construct: His6 (from vector pFAST-BacHTc; purified on Ni-NTA) (N); made in house; host or cells: SF-9 insect cells, recombinant baculovirus BAC-ACC1
Procedure: (1) Cloning of Human ACC1 Gene and Preparation of Recombinant Baculovirus
Human ACC1 gene was cloned by PCR using a human liver cDNA library (Clontech) as a template and Primer 1 and Primer 2 shown below. Primer 1 and Primer 2 were prepared by adding SalI, NotI restriction enzyme recognition sequences based on the information of the base sequence of human ACC1 gene (Genbank Accession U19822).
PCR was performed using Pyrobest DNA polymerase (TAKARA BIO INC.). The obtained PCR product was cloned to pT7 Blue vector (Novagen) and after confirmation of the base sequence, digested with restriction enzymes SalI and […]. The obtained DNA fragment was inserted into pFAST-BacHTc (Invitrogen) digested with restriction enzymes SalI and […] to give expression plasmid ACC1/pFAST-BacHTc.
Using the expression plasmid ACC1/pFAST-BacHTc and BAC-TO-BAC Baculovirus Expression System (Invitrogen), virus stock BAC-ACC1 of recombinant Baculovirus was prepared.
(2) Preparation of ACC1 Protein
SF-9 cells (Invitrogen) were inoculated to a medium (10 L) for insect cells (Sf-900IISFM medium (Invitrogen) containing 5% fetal bovine serum (Trace), 50 mg/L Gentamicin (Wako Pure Chemical Industries, Ltd.) and 0.1% Pluronic F-68 (Invitrogen)) at 1.0×10^6 cells/mL, and cultured with shaking in Wave Bioreactor (GE Healthcare) at 27° C., 20 rpm, rocking angle 100, oxygen concentration 30%.
On day 2 of the culture, recombinant Baculovirus BAC-ACC1 was added, and the cells were cultured for 3 days. The culture medium was centrifuged at 4000×g for 10 min to give virus-infected cells. The cells were washed with phosphate buffered saline (Invitrogen) and centrifuged under the same conditions. The obtained cells were cryopreserved at −80° C.
The cryopreserved cells were thawed in ice, and suspended in 800 mL of 25 mM HEPES buffer (pH 7.5) containing 10% Glycerol, 0.3 M NaCl, 1 mM EDTA, 25 mM Sodium β-Glycerophosphate and 1 mM Sodium Orthovanadate, and supplemented with Complete Protease Inhibitor (Roche). The obtained suspension was homogenized two times in a polytron homogenizer (Kinematica) at 20,000 rpm for 20 sec. The obtained cell disruption solution was clarified by centrifugation at 186,000×g for 60 min, and the supernatant was passed through Ni-NTA Superflow Cartridges (5 mL) (QUIAGEN). Furthermore, it was washed with 25 mM HEPES buffer (pH 7.5) containing 20 mM Imidazole and 0.3 M NaCl, and eluted with 25 mM HEPES buffer (pH 7.5) containing 250 mM Imidazol and 0.3 M NaCl. The eluate was concentrated by Amicon Ultra-15 (Nihon Millipore K.K.) having a fraction molecular weight of 50K. The obtained concentrate was subjected to gel filtration with 50 mM HEPES buffer (pH 7.5) containing 10 mM MgCl2, 2 mM dithiothreitol, 10 mM tripotassium citrate and 0.3 M NaCl by using HiLoad 26/60 Superdex200 prep grade gel filtration column (GE Healthcare) to give ACC1. The obtained ACC1 was cryopreserved at −80° C.
(3) Measurement of ACC1 Inhibitory Activity
ACC1 obtained in the above-mentioned (2) was diluted with an enzyme reaction buffer (50 mM HEPES (pH 7.5), 10 mM MgCl2, 10 mM Tripottasium Citrate, 2 mM Dithiothreitol, 0.001% Fatty acid free BSA) to a concentration of 0.2 μg/ml, and the mixture was added to each well of a 384 well assay plate by 10 μl. A test compound dissolved in dimethyl sulfoxide (DMSO) was diluted with an enzyme reaction buffer, and the resulting solution (5 μl) was added to each well. The mixture was incubated at room temperature for 60 min. Then, a substrate solution (50 mM KHCO3, 200 μM ATP, 200 μM Acetyl-CoA, 5 μl) was added to each well, and the mixture was reacted at room temperature for 30 min. The reaction was quenched by adding a reaction quenching liquid (1.3% formic acid, 0.2 μM Malonyl-^13C3-CoA) by 60 μL each to the obtained reaction mixtures (test compound addition group).
In addition, a reaction was performed in the same manner as above and without adding the test compound (test compound non-addition group). […]

inhibition at 10 µM [2] | SMILES | inhibition at 1 µM [1]
96% | CC(=O)NC(C)c1ccc(OCc2c(F)cc(Oc3cccc(OCC4CC4)c3)cc2F)nc1 (stereo not drawn) [Example 68, N-(1-(6-((4-(3-(cyclopropylmethoxy)phenoxy)-2,6-difluorobenzyl)oxy)pyridin-3-yl)ethyl)acetamide] | 25%
98% | CC(=O)NC(C)CC(=O)c1cnn(-c2ccc(Oc3cccc(OCC4CC4)c3)nc2)c1 (stereo not drawn) [Example 103, N-(4-(1-(6-(3-(cyclopropylmethoxy)phenoxy)pyridin-3-yl)-1H-pyrazol-4-yl)-4-oxobutan-2-yl)acetamide] | 
97% | CC(=O)NC(C)CCc1coc(-c2ccc(Oc3cccc(OCC4CC4)c3)cc2)n1 (stereo not drawn) [Example 83, N-(4-(2-(4-(3-(cyclopropylmethoxy)phenoxy)phenyl)-1,3-oxazol-4-yl)butan-2-yl)acetamide] | 28%
92% | CC(=O)N[C@@H](C)COc1cc(-c2ccc(Oc3cccc(OCC4CC4)c3)cc2)no1 [Example 67, N-((2S)-1-((3-(4-(3-(cyclopropylmethoxy)phenoxy)phenyl)-1,2-oxazol-5-yl)oxy)propan-2-yl)acetamide] | 29%
98% | CC(=O)N[C@@H](C)COc1cnc(-c2cnc(Oc3cccc(OCC4CC4)c3)cc2C)o1 [Example 106, N-((2S)-1-((2-(6-(3-(cyclopropylmethoxy)phenoxy)-4-methylpyridin-3-yl)-1,3-oxazol-5-yl)oxy)propan-2-yl)acetamide] | 
100% | CC(=O)N[C@@H](C)COc1cnc(-c2ccc(Oc3cccc(OCC4CC4)c3)cn2)o1 [Example 102, N-((2S)-1-((2-(5-(3-(cyclopropylmethoxy)phenoxy)pyridin-2-yl)-1,3-oxazol-5-yl)oxy)propan-2-yl)acetamide] | 
100% | CC(=O)NC(C)CC(=O)c1cnc(-c2ccc(Oc3cccc(OCC4CC4)c3)nc2)o1 (stereo not drawn) [Example 105, N-(4-(2-(6-(3-(cyclopropylmethoxy)phenoxy)pyridin-3-yl)-1,3-oxazol-5-yl)-4-oxobutan-2-yl)acetamide] | 

Further lines, the compound ahead of its results:

SMILES | inhibition at 10 µM [2] | inhibition at 1 µM [1]
CC(=O)NC(C)c1ccc(OCc2ccc(Oc3cccc(OCC4CC4)c3)cc2F)nc1 (stereo not drawn) [Example 42, N-(1-(6-((4-(3-(cyclopropylmethoxy)phenoxy)-2-fluorobenzyl)oxy)pyridin-3-yl)ethyl)acetamide] | 85% | 10%
CC(=O)NC(C)CC(=O)c1cnc(-c2ccc(Oc3cccc(OCC4CC4)c3)cc2)o1 (stereo not drawn) [Example 64, N-(4-(2-(4-(3-(cyclopropylmethoxy)phenoxy)phenyl)-1,3-oxazol-5-yl)-4-oxobutan-2-yl)acetamide] | 99% | 35%
CC(=O)NC(C)c1cnc(OCc2c(F)cc(Oc3cccc(OCC4CC4)c3)cc2F)cn1 (stereo not drawn) [Example 43, N-(1-(5-((4-(3-(cyclopropylmethoxy)phenoxy)-2,6-difluorobenzyl)oxy)pyrazin-2-yl)ethyl)acetamide] | 94% | 
CC(=O)N[C@@H](C)COc1cnc(-c2ccc(Oc3cccc(OCC4CC4)c3)cc2)o1 [Example 30, N-((2S)-1-((2-(4-(3-(cyclopropylmethoxy)phenoxy)phenyl)-1,3-oxazol-5-yl)oxy)propan-2-yl)acetamide] | 99% | 28%
CC(=O)NC(C)c1cnc(OCc2c(F)cc(Oc3cccc(OCC4CC4)c3)cc2F)c(F)c1 (stereo not drawn) [Example 73, N-(1-(6-((4-(3-(cyclopropylmethoxy)phenoxy)-2,6-difluorobenzyl)oxy)-5-fluoropyridin-3-yl)ethyl)acetamide] | 98% | 31%
CC(=O)NC(C)c1cnc(OCc2ccc(Oc3cccc(OCC4CC4)c3)cc2F)cn1 (stereo not drawn) [Example 35, N-(1-(5-((4-(3-(cyclopropylmethoxy)phenoxy)-2-fluorobenzyl)oxy)pyrazin-2-yl)ethyl)acetamide] | 78% | 
C[C@@H](COc1cnc(-c2ccc(Oc3cccc(OCC4CC4)c3)nc2)o1)NC(N)=O [Example 101, 1-((2S)-1-((2-(6-(3-(cyclopropylmethoxy)phenoxy)pyridin-3-yl)-1,3-oxazol-5-yl)oxy)propan-2-yl)urea] | 98% | 
CC(=O)N[C@@H](C)COc1cnc(-c2ccc(Oc3cccc(OCC4CC4)c3)nc2)o1 [Example 99, N-((2S)-1-((2-(6-(3-(cyclopropylmethoxy)phenoxy)pyridin-3-yl)-1,3-oxazol-5-yl)oxy)propan-2-yl)acetamide] | 100% | 
CC(=O)NC(C)c1ccc(OCc2c(F)cc(Oc3cccc(OCC4CC4)c3)cc2F)cc1 (stereo not drawn) [Example 39, N-(1-(4-((4-(3-(cyclopropylmethoxy)phenoxy)-2,6-difluorobenzyl)oxy)phenyl)ethyl)acetamide] | 82% | 26%
CC(=O)NC(C)c1ccc(OCc2ccc(Oc3cccc(OCC4CC4)c3)cc2F)cc1 (stereo not drawn) [Example 19, N-(1-(4-((4-(3-(cyclopropylmethoxy)phenoxy)-2-fluorobenzyl)oxy)phenyl)ethyl)acetamide] | 83% | 15%
CC(=O)NC(C)c1ccc(OCc2c(F)cc(Oc3cccc(OCC4CC4)c3)cc2F)nn1 (stereo not drawn) [Example 78, N-(1-(6-((4-(3-(cyclopropylmethoxy)phenoxy)-2,6-difluorobenzyl)oxy)pyridazin-3-yl)ethyl)acetamide] | 97% | 12%
CC(=O)NC(C)CCc1cc(-c2ccc(Oc3cccc(OCC4CC4)c3)cc2)no1 (stereo not drawn) [Example 46, N-(4-(3-(4-(3-(cyclopropylmethoxy)phenoxy)phenyl)-1,2-oxazol-5-yl)butan-2-yl)acetamide] | 95% | 20%
CC(=O)NC(C)CCc1cnc(-c2ccc(Oc3cccc(OCC4CC4)c3)cc2)o1 (stereo not drawn) [Example 32, N-(4-(2-(4-(3-(cyclopropylmethoxy)phenoxy)phenyl)-1,3-oxazol-5-yl)butan-2-yl)acetamide] | 97% | 30%
C[C@@H](COc1cnc(-c2ccc(Oc3cccc(OCC4CC4)c3)cn2)o1)NC(N)=O [Example 104, 1-((2S)-1-((2-(5-(3-(cyclopropylmethoxy)phenoxy)pyridin-2-yl)-1,3-oxazol-5-yl)oxy)propan-2-yl)urea] | 95% | 
